Reference: patent US20230312478A1, “HERBICIDAL COMPOUNDS” (SYNGENTA CROP PROTECTION AG, priority 2020, published 2023)

Tests used:
Type in all cases: in vivo
Settings in all cases: 250 g/ha, evaluated visually after 13 days, scale 0-5
[1] = tested on: Abutilon theophrasti (ABUTH); test: Herbicidal efficacy, application post-emergence; design: key: 5 = total damage to plant; 0 = no damage to plant
Description: (§1) Seeds of a variety of test species [Ipomoea hederacea (IPOHE); Zea mays (ZEAMX); Echinochloa crus-galli (ECHCG); Setaria faberi (SETFA); Abutilon theophrasti (ABUTH); Amaranthus retroflexus (AMARE)] were sown in standard sterilised soil in pots. After cultivation for one day (pre-emergence) or after 8 days cultivation (post-emergence) under controlled conditions in a glasshouse (at 24/16° C., day/night; 14 hours light; 65 % humidity), the plants were sprayed with an aqueous spray solution derived from the formulation of the technical active ingredient in acetone / water (50:50) solution containing 0.5% Tween 20 (polyoxyethelyene sorbitan monolaurate, CAS RN 9005-64-5), subsequently diluted in water, and sprayed to give the stated application rate.
(§2) The test plants were then grown under controlled conditions in a glasshouse (at 24/16° C., day/night; 14 hours light; 65 % humidity) and watered twice daily.
(§3) After 13 days for pre- and post-emergence, the test was evaluated visually for percentage phytotoxicity to the plant (where 5 = total damage to plant; 0 = no damage to plant).

[2] = tested on: Echinochloa crus-galli (ECHCG); test: Herbicidal efficacy, application pre-emergence; design: key: 5 = total damage to plant; 0 = no damage to plant
Description: as §1, §2, §3

[3] = tested on: Amaranthus retroflexus (AMARE); test: Herbicidal efficacy, application pre-emergence; design: key: 5 = total damage to plant; 0 = no damage to plant
Description: as §1, §2, §3

[4] = tested on: Setaria faberi (SETFA); test: Herbicidal efficacy, application pre-emergence; design: key: 5 = total damage to plant; 0 = no damage to plant
Description: as §1, §2, §3

[5] = tested on: Ipomoea hederacea (IPOHE); test: Herbicidal efficacy, application pre-emergence; design: key: 5 = total damage to plant; 0 = no damage to plant
Description: as §1, §2, §3

[6] = tested on: Abutilon theophrasti (ABUTH); test: Herbicidal efficacy, application pre-emergence; design: key: 5 = total damage to plant; 0 = no damage to plant
Description: as §1, §2, §3

[7] = tested on: Zea mays (ZEAMX); test: Herbicidal efficacy, application pre-emergence
Description: as §1, §2, §3

[8] = tested on: Echinochloa crus-galli (ECHCG); test: Herbicidal efficacy, application post-emergence
Description: as §1, §2, §3

[9] = tested on: Amaranthus retroflexus (AMARE); test: Herbicidal efficacy, application post-emergence
Description: as §1, §2, §3

[10] = tested on: Zea mays (ZEAMX); test: Herbicidal efficacy, application post-emergence
Description: as §1, §2, §3

[11] = tested on: Setaria faberi (SETFA); test: Herbicidal efficacy, application post-emergence
Description: as §1, §2, §3

[12] = tested on: Ipomoea hederacea (IPOHE); test: Herbicidal efficacy, application post-emergence
Description: as §1, §2, §3

| SMILES | phytotoxicity to the plant, ABUTH [1] | phytotoxicity to the plant, ECHCG [2] | phytotoxicity to the plant, AMARE [3] | phytotoxicity to the plant, SETFA [4] | phytotoxicity to the plant, IPOHE [5] | phytotoxicity to the plant, ABUTH [6] | phytotoxicity to the plant, ZEAMX [7] | phytotoxicity to the plant, ECHCG [8] | phytotoxicity to the plant, AMARE [9] | phytotoxicity to the plant, ZEAMX [10] | phytotoxicity to the plant, SETFA [11] | phytotoxicity to the plant, IPOHE [12] |
| --- | --- | --- | --- | --- | --- | --- | --- | --- | --- | --- | --- | --- |
| Cc1cc(C2CN(C)C(=O)C2C(=O)Nc2cccc(F)c2F)nn1C(F)F (stereo not drawn) [Compound 33, 4-[1-(difluoromethyl)-5-methyl-pyrazol-3-yl]-N-(2,3-difluorophenyl)-1-methyl-2-oxo-pyrrolidine-3-carboxamide] | 1 | 5 | 2 | 5 | 1 | 1 | 4 | 4 | 2 | 3 | 4 | 4 |
| CCc1cc(C2CN(C)C(=O)C2C(=O)Nc2ccc(F)cc2F)nn1C(F)F (stereo not drawn) [Compound 58, 4-[1-(difluoromethyl)-5-ethyl-pyrazol-3-yl]-N-(2,4-difluorophenyl)-1-methyl-2-oxo-pyrrolidine-3-carboxamide] | 0 | 5 | 0 | 5 | 1 | 0 | 3 | 4 | 1 | 2 | 4 | 3 |
| CCc1cc(C2CN(C)C(=S)C2C(=O)Nc2ccc(F)cc2F)nn1C(F)F (stereo not drawn) [Compound 62, 4-[1-(difluoromethyl)-5-ethyl-pyrazol-3-yl]-N-(2,4-difluorophenyl)-1-methyl-2-thioxo-pyrrolidine-3-carboxamide] | 1 | 5 | 0 | 5 | 0 | 0 | 2 | 4 | 1 | 1 | 4 | 1 |
| CCc1cc(C2CN(C)C(=O)C2C(=O)Nc2ccc(F)nc2F)nn1C(F)F (stereo not drawn) [Compound 82, 4-[1-(difluoromethyl)-5-ethyl-pyrazol-3-yl]-N-(2,6-difluoro-3-pyridyl)-1-methyl-2-oxo-pyrrolidine-3-carboxamide] | 1 | 5 | 1 | 5 | 3 | 1 | 3 | 4 | 1 | 4 | 4 | 4 |
